Source: US9321781B2, “Topoisomerase inhibitors” (Rutgers, The State University of New Jersey, priority 2009, dated 2016)
Read-outs that look alike come from different tables or passages of the source.

Assays:
[1] = system: human lymphoblast RPMI 8402; assay: MTT cytotoxicity assay (Test B), RPMI 8402; format: cell-based; conditions: RPMI 8402 cells, continuous exposure four days, read-out: Cytotoxicity (IC50 values (μM) RPMI8402)
Protocol: (§1) Test B. Cytotoxic assays (cancer cell lines and efflux transporter cell lines)
(§2) The cytotoxicity was determined using the MTT-microtiter plate tetrazolinium cytotoxicity assay (MTA). The human lymphoblast RPMI 8402 and its camptothecin-resistant variant cell line, CPT-K5 was provided by Dr. Toshiwo Andoh (Aichi Cancer Center Research Institute, Nagoya, Japan). The P388 mouse leukemia cell line and its CPT-resistant TOP1-deficient variant P388/CPT45 were obtained from Michael R. Mattern and Randal K. Johnson (GlaxoSmithKline, King of Prussia, Pa.). The KB3-1 cell line and its multidrug-resistant variant KBV-1 were obtained from K.V. Chin (The Cancer Institute of New Jersey, New Brunswick, N.J.). The KBH5.0 cell line as noted previously was derived from KB3-1 by stepwise selection against Hoechst 33342. The cytotoxicity assay was performed using 96-well microtiter plates. Cells were grown in suspension at 37° C. in 5% CO2 and maintained by regular passage in RPMI medium supplemented with 10% heat inactivated fetal bovine serum, L-glutamine (2 mM), penicillin (100 U/mL), and Streptomycin (0.1 mg/mL). For determination of IC50, cells were exposed continuously for four days to varying concentrations of drug, and MTT assays were performed at the end of the fourth day. […] All assays were performed at least twice in six replicate wells.

[2] = system: CPT-K5 (camptothecin-resistant variant cell line of RPMI 8402); assay: MTT cytotoxicity assay (Test B), CPT-K5; format: cell-based, human; conditions: CPT-K5 cells, continuous exposure four days
Protocol: as §1, §2

[3] = system: P388 mouse leukemia cell line; assay: MTT cytotoxicity assay (Test B), P388; format: cell-based; conditions: 96 h, P388 cells, continuous exposure four days
Protocol: as §1, §2

[4] = system: P388/CPT45 (CPT-resistant TOP1-deficient variant of P388); assay: MTT cytotoxicity assay (Test B), P388/CPT45; format: cell-based; conditions: Mus musculus, P388CPT45, 96 h, P388/CPT45 cells, continuous exposure four days
Protocol: as §1, §2

[5] = MTT cytotoxicity assay, KB3-1 parent cell line; format: cell-based; conditions: human, KB3-1 cells (parent cell line), KB3-1 parent cells, continuous exposure four days
Protocol: as §1, §2
(§3) The cytotoxicity of the representative compounds of the invention were also tested against cell line KB3-1 (parent cell line), KBV-1 (a variant that overexpresses efflux transporter MDR1) and KBH5.0 (a variant that overexpresses BCRP). Differences in the relative cytotoxicity between the parent and variant cell lines may be indicative of a compound that is a substrate for an efflux transporter. […] Accordingly, compounds of the invention may be useful to treat tumors that are resistant to other anticancer agents, including anticancer agents that are susceptible to efflux by BCRP (e.g. anthracyclines, mitoxantrone, topotecan, irinotecan, bisanthrone, doxorubicin, daunorubicin, and epirubin.

[6] = system: MDR1; assay: MTT cytotoxicity assay, KBV-1 efflux transporter cell line; format: cell-based; conditions: human, KBV-1 cells (KB3-1 variant that overexpresses MDR1), KBV-1 cells (MDR1 overexpressing), continuous exposure four days
Protocol: as §1, §2, §3

[7] = system: BCRP; assay: MTT cytotoxicity assay, KBH5.0 efflux transporter cell line; format: cell-based; conditions: human, KBH5.0 cells (KB3-1 variant that overexpresses BCRP); KBH5.0 cells (BCRP overexpressing), continuous exposure four days, MTT
Protocol: as §1, §2, §3

[8] = system: KBH5.0 (a variant that overexpresses BCRP); assay: as above; format: cell-based; conditions: inferred from relative cytotoxicity KB3-1 vs KBH5.0
Protocol: as §1, §2, §3

Compound	IC50 ([1]; Homo sapiens, RPMI 8402, 96 h)	IC50 ([2]; Homo sapiens, CPT-K5, 96 h)	IC50 [3]	IC50 [4]	IC50 at 4 days [5]	IC50 at 4 days [6]	IC50 at 4 days [7]	IC50 ([1]; Homo sapiens, 96 h)	IC50 ([2]; Homo sapiens, 96 h)	IC50 [1]	substrate for efflux transporter BCRP [8]	IC50 [2]
COc1cc2c(cc1OC(=O)OC(C)(C)C)c(=O)n(CCN(C)C)c1c3cc4c(cc3ncc21)OCO4 [Example 7, tert-butyl 5-(2-(dimethylamino)ethyl)-9-methoxy-2,3-methylenedioxy-6-oxo-5,6-dihydrodibenzo[c,h][1,6]naphthyridin-8-yl carbonate]	0.0005 µM	0.31 µM	0.001 µM	0.08 µM	0.002 µM	0.004 µM	0.009 µM					
COc1cc2c(cc1OC(=O)N(C)C)c(=O)n(CCN(C)C)c1c3cc4c(cc3ncc21)OCO4 [Example 9, 5-(2-(dimethylamino)ethyl)-9-methoxy-2,3-methylenedioxy-6-oxo-5,6-dihydrodibenzo[c,h][1,6]naphthyridin-8-yl dimethylcarbamate]			1.3 µM	3.8 µM	0.4 µM	3 µM	2 µM	1.7 µM	> 10 µM			
COc1cc2c(cc1OC(=O)c1ccccc1C)c(=O)n(CCN(C)C)c1c3cc4c(cc3ncc21)OCO4 [Example 2, 5-(2-(dimethylamino)ethyl)-9-methoxy-2,3-methylenedioxy-6-oxo-5,6-dihydrodibenzo[c,h][1,6]naphthyridin-8-yl 2-methylbenzoate]	0.07 µM	2 µM	0.03 µM	0.4 µM	0.04 µM	0.2 µM	0.04 µM			0.05 µM	not a substrate for BCRP	
CCOC(=O)Oc1cc2c(=O)n(CCN(C)C)c3c4cc5c(cc4ncc3c2cc1OC)OCO5 [Example 6, 5-(2-(dimethylamino)ethyl)-9-methoxy-2,3-methylenedioxy-6-oxo-5,6-dihydrodibenzo[c,h][1,6]naphthyridin-8-yl ethyl carbonate]	0.0006 µM	0.25 µM	0.0002 µM	0.06 µM	0.001 µM	0.003 µM	0.008 µM					
COc1cc2c(cc1OC(=O)C(C)(C)C)c(=O)n(CCN(C)C)c1c3cc4c(cc3ncc21)OCO4 [Example 4, 5-(2-(dimethylamino)ethyl)-9-methoxy-2,3-methylenedioxy-6-oxo-5,6-dihydrodibenzo[c,h][1,6]naphthyridin-8-yl pivalate]	0.0007 µM	0.3 µM	0.003 µM	0.25 µM	0.002 µM	0.024 µM	0.017 µM					
COc1cc2c(cc1OC(C)=O)c(=O)n(CCN(C)C)c1c3cc4c(cc3ncc21)OCO4 [Example 3, 5-(2-(dimethylamino)ethyl)-9-methoxy-2,3-methylenedioxy-6-oxo-5,6-dihydrodibenzo[c,h][1,6]naphthyridin-8-yl acetate]	0.009 µM	0.7 µM	0.004 µM	0.3 µM	0.007 µM	0.06 µM	0.025 µM					
CCNC(=O)Oc1cc2c(=O)n(CCN(C)C)c3c4cc5c(cc4ncc3c2cc1OC)OCO5 [Example 8, 5-(2-(dimethylamino)ethyl)-9-methoxy-2,3-methylenedioxy-6-oxo-5,6-dihydrodibenzo[c,h][1,6]naphthyridin-8-yl ethylcarbamate]			0.003 µM	0.09 µM	0.004 µM	0.04 µM	0.015 µM	0.003 µM	0.5 µM			
COc1cc2c(cc1OC(=O)c1ccccc1)c(=O)n(CCN(C)C)c1c3cc4c(cc3ncc21)OCO4 [Example 1, 5-(2-(dimethylamino)ethyl)-9-methoxy-2,3-methylenedioxy-6-oxo-5,6-dihydrodibenzo[c,h][1,6]naphthyridin-8-yl benzoate]	0.006 µM	0.5 µM	0.002 µM	0.12 µM	0.002 µM	0.06 µM	0.025 µM			0.009 µM		0.55 µM
COc1cc2c(cc1OC(=O)N1CCC(N3CCCCC3)CC1)c(=O)n(CCN(C)C)c1c3cc4c(cc3ncc21)OCO4 [Example 10, 5-(2-(dimethylamino)ethyl)-9-methoxy-2,3-methylenedioxy-6-oxo-5,6-dihydrodibenzo[c,h][1,6]naphthyridin-8-yl 1,4′-bipiperidine-1′-carboxylate]			0.5 µM	0.5 µM	0.75 µM	1.6 µM	1.1 µM	0.55 µM	1.5 µM			
COc1cc2c(cc1OC(=O)CCC1CCCC1)c(=O)n(CCN(C)C)c1c3cc4c(cc3ncc21)OCO4 [Example 5, 5-(2-(dimethylamino)ethyl)-9-methoxy-2,3-methylenedioxy-6-oxo-5,6-dihydrodibenzo[c,h][1,6]naphthyridin-8-yl (3-cyclopentyl)propionate]	0.003 µM	0.33 µM	0.002 µM	0.07 µM	0.003 µM	0.058 µM	0.013 µM					
